Measured values reported in PMC7884259 (Journal of medicinal chemistry, 2020).
Changes are numbered by the printed parent chain. Read-outs that look alike come from different tables or passages of the source. Where no end group is shown, it is not given here.

Columns and labels:
[1] = biological target: T1, ATAD2Bshort bromodomain (lacks residues 988–992, VDIEE) (Homo sapiens, UniProt Q9ULI0, DEL988-992); assay: ITC binding to the ATAD2Bshort splice variant bromodomain; details: ITC at 5 °C, 20 mM NaH2PO4 pH 7.0, 150 mM NaCl; no binding in duplicate
T1 sequence (Q9ULI0 953-1080 isoform Q9ULI0-2): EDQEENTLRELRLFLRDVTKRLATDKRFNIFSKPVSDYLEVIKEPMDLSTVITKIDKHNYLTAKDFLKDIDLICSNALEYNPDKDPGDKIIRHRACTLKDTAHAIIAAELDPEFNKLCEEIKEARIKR

[2] = biological target: T2, ATAD2B bromodomain Y1037A (Homo sapiens, UniProt Q9ULI0, Y1037A); assay: ITC binding to the ATAD2B bromodomain mutant Y1037A; details: ITC at 5 °C, 20 mM NaH2PO4 pH 7.0, 150 mM NaCl; no binding in duplicate
T2 sequence (Q9ULI0 953-1085 Y1037A): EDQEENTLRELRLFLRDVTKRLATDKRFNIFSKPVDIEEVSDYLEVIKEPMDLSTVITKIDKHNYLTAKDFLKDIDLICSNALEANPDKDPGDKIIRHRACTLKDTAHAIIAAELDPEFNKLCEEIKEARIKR

ATAD2B bromodomain Y995A = biological target: T3, ATAD2B bromodomain Y995A (Homo sapiens, UniProt Q9ULI0, Y995A); assay: ITC binding to the ATAD2B bromodomain mutant Y995A; details: ITC at 5 °C, 20 mM NaH2PO4 pH 7.0, 150 mM NaCl; no binding in duplicate
T3 sequence (Q9ULI0 953-1085 Y995A): T2 sequence (Q9ULI0 953-1085 Y1037A) with Y43A, A85Y

ATAD2 bromodomain [3] = details: cited from earlier work
ATAD2B bromodomain = biological target: T4, ATAD2B bromodomain (Homo sapiens, UniProt Q9ULI0); assay: ITC binding to the wild-type ATAD2B bromodomain
T4 sequence (Q9ULI0 953-1085): T2 sequence (Q9ULI0 953-1085 Y1037A) with A85Y

ATAD2 bromodomain [4] = details: time-resolved fluorescence energy transfer; cited from earlier work

Row | Dissociation constant, ATAD2Bshort bromodomain [1] | Dissociation constant, Y1037A ATAD2B bromodomain [2] | Dissociation constant, Y995A ATAD2B bromodomain (ATAD2B bromodomain Y995A) | Compound | also measured
1 | no binding | no binding | no binding | SGRGK(Ac)QGGKARA-NH2 [H2AK5ac (res 1–12)] | –
2 | no binding | no binding | no binding | SGRGK(Ac)GGK(Ac)GL-NH2 [H4K5acK8ac (res 1–10)] | –
3 | – | – | – | LGK(Ac)GGAK(Ac)RHRK-NH2 [H4K12acK16ac (res 10–20)] | Kd (ATAD2B bromodomain): 214 ± 7 µM
4 | no binding | no binding | no binding | SGRGK(Ac)GGKGL-NH2 [H4K5ac (res 1–10)] | Kd (ATAD2 bromodomain [3]; read-out: ATAD2 reported KDs, value is for the H4K5ac res 1–20 peptide): 22 µM
5 | – | – | – | RKSTGG(Kac)APRKQ [H3K14ac (res 8–19)] | ATAD2 reported KDs (ATAD2 bromodomain [3]; result is for the H3K14ac res 1–21 peptide): no binding (res 1–21)[14]
6 | – | – | – | H4K5acK8acK12acK16ac (1–25): tetra-acetylated histone H4 residues 1–25 peptide of the cited TR-FRET assay | recognition by the ATAD2 bromodomain in TR-FRET (ATAD2 bromodomain [4]): recognizes
7 | no binding | no binding | no binding | GKGGKGLGKGGAKRHRK [H4 unmodified (res 4–17)] | –
8 | – | – | – | SGRGKGGK(Ac)GL-NH2 [H4K8ac (res 1–10)] | ATAD2 reported KDs (no KD available, interaction only) (ATAD2 bromodomain [3]; qualitative): NA, interaction shown[16]
9 | – | – | – | H4K5acK12ac (1–25): diacetylated histone H4 residues 1–25 peptide of the cited TR-FRET assay | recognition by the ATAD2 bromodomain in TR-FRET (ATAD2 bromodomain [4]): recognizes

Row | Compound | Dissociation constant, ATAD2Bshort bromodomain [1] | Dissociation constant, Y1037A ATAD2B bromodomain [2] | Dissociation constant, Y995A ATAD2B bromodomain (ATAD2B bromodomain Y995A) | also measured
10 | CC(=O)NCCCC[C@H](NC(=O)CNC(=O)[C@H](CC(C)C)NC(=O)CNC(=O)[C@H](CCCCN)NC(=O)CNC(=O)CNC(=O)[C@H](CCCCN)NC(=O)CN)C(=O)NCC(=O)NCC(=O)N[C@@H](C)C(=O)N[C@@H](CCCCN)C(=O)N[C@@H](CCCNC(=N)N)C(N)=O [H4K12ac (res 4–17)] | no binding | no binding | no binding | Kd (ATAD2 bromodomain [3]; read-out: ATAD2 reported KDs, value is for the H4K12ac res 1–25 peptide): 2.5 µM; Kd (ATAD2B bromodomain): 50.5 ± 5.8 µM
11 | 8-(((3R,4R)-3-((1,1-dioxidotetrahydro-2H-thiopyran-4-yl)-methoxy)-piperidin-4-yl)amino)-3-methyl-5-(5-methylpyridin-3-yl)-1,7-naphthyridin-2(1H)-one [compound 38, reference compound] | no binding | – | – | Kd (ATAD2 bromodomain [3]; read-out: ATAD2 reported KDs (binding affinity)): 0.09 µM
